The target of one data set is Bcl-2 (Homo sapiens, UniProt P10415). Put plainly: Competitive fluorescence polarization assay (FPA), Bim BH3 peptide. It is filed as binding. On the technique in general: In fluorescence polarisation assays a small probe gives low polarisation when free and higher when bound to something large.
For another data set, the target named is T1, Bfl-1 (Homo sapiens, UniProt Q16548).
T1 sequence (Q16548 1-175): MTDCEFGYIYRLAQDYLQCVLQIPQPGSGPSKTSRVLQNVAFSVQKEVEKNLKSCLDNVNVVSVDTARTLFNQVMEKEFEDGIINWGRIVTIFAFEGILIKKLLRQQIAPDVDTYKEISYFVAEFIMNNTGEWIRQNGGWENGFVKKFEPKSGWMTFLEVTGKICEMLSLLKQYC
The data set is described as follows: Competitive fluorescence polarization assay (FPA). In kind it is binding.

Another data set concerns PC3ML cells. The data set is described as follows: Cell viability, ATP-LITE assay. Particulars: Table 3; ATP-LITE assay; heading: EC50 PC3ML; read-out: EC50 PC3ML. It is filed as cell-based, human. Put shortly:
(§1)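 Human cancer lines were seeded at 2000 (H460, H1299), 3000 (PC3) or 10,000 (RS11846) cells/well in F12 or RPMI1640 with 5% FBS. Compounds were added in 0.1% DMSO 24 h after seeding. Viability was read by ATP-LITE luminescence after 72 h and normalized to DMSO controls.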

Data set [1] deals with H460 human lung cell line. Put plainly: Cell viability, ATP-LITE assay. It is filed as cell-based. Particulars: ATP-LITE assay, read-out: EC50 H460. In short, it runs like this:
as §1

In data set [2] the test system is human lymphoma RS11846 cell line. The data set is described as follows: Apoptosis, Annexin V-FITC and propidium iodide assay. To be noted: Table 3; Annexin V-FITC and propidium iodide assay; heading: EC50 RS11846; read-out: EC50 RS11846. It is filed as cell-based.
Description: The apoptotic activity of the compounds against RS11846 cells was assessed by staining with Annexin V- and propidium iodide (PI). Lymphoma cell line, RS11846, was cultured in RPMI 1640 medium (Mediatech Inc., Herndon, Va. 20171) containing 10% fetal bovine serum (Mediatech Inc., Herndon, Va. 20171) and Penicillin/Streptomycin (Mediatech Inc., Herndon, Va. 20171). […] The percentage of viable cells was determined by FITC-Annexin V- and propidium iodide (PI)-labeling, using an Apoptosis Detection kit (BioVision Inc.), and analyzing stained cells by flow cytometry (FACSort; Bectin-Dickinson, Inc.; Mountain View, Calif.). Cells that were annexin-V-negative and PI-negative were considered viable.
The subject of data set [3] is BP3 human B-cell lymphoma cell line. The data set is described as follows: Annexin V-FITC and propidium iodide assay. It is filed as cell-based. Particulars: Annexin V-FITC and propidium iodide assay, read-out: EC50 BP3.
Data set [4] is described as follows: Chemical stability of solid compounds at room temperature (HPLC, LCMS). Particulars: in air, Apogossypol in the absence of ascorbic acid. The text has this:
The stability of compound was monitored using a combination of HPLC and LCMS.

A short description of another data set: Plasma stability. In kind it is in vitro ADME, rat. As to the method: Plasma Stability. A 20 μL aliquot of a 10 mM solution in DMSO of the test compound was added to 2.0 mL of heparinized rat plasma (Lampire, P1-150N) to obtain a 100 μM final solution. The mixture was incubated for 1 h at 37.5° C. Aliquots of 100 μL were taken (0, 30 min, 1 h) and diluted with 200 μL of MeOH containing internal standard.

The nature of data set [5]: Liver microsomal stability. It is filed as in vitro ADME, rat. Particulars: Table 6; rat liver microsomes, 1 h. The text has this:
Liver Microsomal Stability.
Background: Microsomes from liver hold many membrane-bound enzymes, among them those of drug oxidation.

Data set [6] in a line: PAMPA cell membrane permeability. In kind it is in vitro ADME. Particulars: Table 11; Low/Medium, not defined. The text has this: PAMPA is parallel artificial membrane permeation assay.
A further data set concerns B6Bcl-2 transgenic mice. Put shortly: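 B6 line BCL-2 transgenic mice (human BCL-2 fused to IgH locus/enhancer, Balb/c background) sacrificed 24 h post-treatment by lethal i.p. Avertin. Spleen removed and weighed, fixed 3 days in z-FIX for H&E and TUNEL histology.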
A further data set has as its system Balb/c mice. The data set is described as follows: Oral toxicity of gossypol vs apogossypol in normal mice. To be noted: daily dosing studies in mice. In kind it is in vivo, mouse. Here is the method: Compounds or vehicle control were dosed 15 times over 3 weeks, giving compounds daily for 5 consecutive days (Monday-Friday), resting on weekends.
Spleens were removed and weighed.
Whole blood (250 μl) was collected in EDTA-coated glass tubes (purple top; MICROTAINER Brand Tube with EDTA, Catalogue #365973, Becton, Dickinson and Company, New Jersey 07417-1885) via either cardiac puncture or severing the brachial artery of anesthetized mice. After thorough mixing, specimens were analyzed using a VetScan HM2 (Abaxis Inc., Union City, Calif. 94587) hematology analyzer, measuring white blood cell count (WBC), red blood cell count (RBC), platelet (PLT) count, leukocyte differential (including % lymphocyte, % monocyte and % granulocyte), hematocrit (Ht), and hemoglobin (Hb).
(Eppendorf Centrifuge 5415C) for 2 minutes to separate serum from cells and fibrin clot. The resulting serum specimens were analyzed using an automated blood chemistry analyzer (“COBAS MIRA Classic”; Roche, Indianapolis, Ind. 46250-0414) to measure alanine aminotransferase (ALT) and aspartate aminotransferase AST), blood urea nitrogen (BUN), and […].

Another data set concerns BCL-2 transgenic mice. The data set is described as follows: Oral efficacy study in BCL-2 transgenic mice, QDx5 for 3 weeks. To be noted: low dose 0.06 mmol/kg oral. Here is the method:
The volume of administration was 10 ml/kg, i.e., typically 0.2 mL per 20 gm mouse. […] Age-matched, sex-matched mice were typically dosed 5 times weekly, using a regiment of daily dosing 5 consecutive days (Monday through Friday), followed by resting for 2 days, before resuming dosing. […] At conclusion of treatments, mice were sacrificed via intra-peritoneal (i.p.) injection of 0.7 ml of Avertin and whole blood was collected into Yellow-Top Serum Separator tubes (Becton Dickinson Vacutainer Systems Becton Dickinson and Company, Franklin Lakes, N.J. 07417-1885). Spleens were removed and weighed.
Age-matched and sex-matched BCL-2 transgenic mice were used for efficacy studies. BCL-2 transgenic mice spontaneously developed low grade B-cell lymphoma as characterized by splenomegaly, as a function of time. In BCL-2 transgenic mice, the disease progression can be divided into two stages; at the first stage, the disease is characterized by splenomegaly as a result of expansion of B-cells in spleen due to over-expressed BCL-2 in B6 mice, and at the second stage, another genetic hit(s) may strike, resulting in disseminated lymphoma as characterized by bulky lymphadenopathy as well as splenomegaly.
In this study, BCL-2 transgenic mice at the first stage were used for this efficacy study. […] At conclusion of treatment, BCL-2 transgenic mice were sacrificed via intraperitoneal injection of 0.7 ml of avertin (anesthetic solution) and spleen was removed and weighed. Splenocytes were isolated by the use of mouse erythrocyte lysing kit (RD Systems). Total splenocyte count was determined by trypane blue exclusion assays. % B-cell count was determined by FACS analysis after staining cells with CD-5, a B-cell marker.

In the next data set the test system is H460 cell line. To be noted: studied by other groups; cited from earlier work.
The next data set has as its system HeLa cells. The data set is described as follows: HeLa cells viability assay. In kind it is cell-based. To be noted: Homo sapiens, Table 12. As to the method: Relative numbers of viable cells was determined by XTT assay. Briefly, in a 96-well plate, we added 50 μl of a mixture of 1 mg/ml of XTT (2,3-bis(2-methoxy-4-nitro-5-sulfophenyl)-5-[(phenylamino)carbonyl]-2H-tetrazolium hydroxide) (Polysciences, Washington, Pa.) containing 0.025 mM PMS (phenazine methosulfate) to each well. The 96-well plates were reincubated for an additional 4 hours to allow for XTT formazan production. Then, the contents of each plate were mixed and optical densities were determined at a wavelength of 450 nm (OD450). Net OD450 was determined after subtracting OD450 of blank wells. […] Immunoblot analysis of BCL-XL was accomplished as previously described.

Read-outs that look alike come from different tables or passages of the source. Where only a bound is given, the exact number is not on record here.

The values below come from patent publication US8039668B2, “Naphthalene-based inhibitors of anti-apoptotic proteins” (Burnham Institute for Medical Research, priority 2008, dated 2011).

What is called IC50 is the concentration needed to halve the response being measured. A word on the EC50: it is the midpoint of the concentration-response curve.

Sequence of Bcl-2 (P10415 whole entry): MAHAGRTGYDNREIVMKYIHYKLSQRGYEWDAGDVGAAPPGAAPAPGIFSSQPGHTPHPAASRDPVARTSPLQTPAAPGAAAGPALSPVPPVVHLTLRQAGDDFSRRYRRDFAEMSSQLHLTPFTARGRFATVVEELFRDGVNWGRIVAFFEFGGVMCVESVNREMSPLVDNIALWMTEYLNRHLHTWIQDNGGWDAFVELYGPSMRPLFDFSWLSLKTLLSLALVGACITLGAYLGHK

For the compound `Cc1cc2c(C(C)C)c(O)c(O)cc2c(O)c1-c1c(C)cc2c(C(C)C)c(O)c(O)cc2c1O` [Apogossypol, 5,5′-diisopropyl-3,3′-dimethyl-2,2′-binaphthyl-1,1′,6,6′,7,7′-hexanol, reference compound], the half-maximal inhibitory concentration (IC50) on Bcl-2 is 4.3 µM; at Bfl-1 it was over 10 µM. Moreover, the concentration giving a half-maximal response (EC50) in the data set on PC3ML cells was determined as 10.4 µM; in data set [1], 3.5 µM; in [1] (Table 3, heading: EC50 H460) it was 3.5 µM; in data set [2], 5 µM; in data set [3] it was 4.7 µM; in [3] (Table 3, heading: EC50 BP3), 4.7 µM. For the same compound, the “degraded after 60 days at room temperature” value in [4] was about 80%. Further, the “degraded after 1 hour incubation in rat plasma” value in the data set “Plasma stability” (1 hour) amounted to 47%. For the same compound, the “Plasma stability (T = 1 h)” value in the data set “Plasma stability” (Table 6, rat plasma, 1 h) came to 53%. Further, the “Microsomal Stability (T = 1 h)” value in data set [5] worked out at 64%. The “Cell Permeability” value in data set [6] was “Low”. Besides, the Tox in the data set with B6Bcl-2 transgenic mice (Bcl-2 transgenic mouse, single ip injection 72 μmol/kg) is 0. The “percentage of maximum reduction in spleen weight (maximal biological activity)” value with B6Bcl-2 transgenic mice (single ip 72 μmol/kg, maximum shrinkage no more than 50%) was found to be 40%. In addition, the “tolerated doses, times higher than gossypol” value in the data set on Balb/c mice is recorded as 2-4. The shrinkage of spleen result in the data set on BCL-2 transgenic mice was “induced shrinkage of spleen to a significant extent”. In addition, the tolerability entry in the data set with BCL-2 transgenic mice is listed as “well tolerated”.
As to `COC1=CC(c2cc3ccccc3[nH]2)=N/C1=C\c1[nH]c(C)cc1C` [GX15-070], in the data set on H460 cell line, the half-inhibitory concentration (IC50) is 3.85 µM.
As for `O=c1c(O)cccc2cc(O)c(O)c(O)c12` [Purpurogallin], the 50% inhibitory concentration (IC50) with HeLa cells is 6.5 µM.
